Test results: US9062046B2, “Substituted imidazoquinoline derivatives as kinase inhibitors” (Piramal Enterprises Limited, priority 2011, dated 2015)

What was measured:
[1] = system: A2780 (ovarian cell line); assay: Cytotoxicity assay (propidium iodide assay), A2780; type: cell-based; details: Homo sapiens, A2780 cells, 48 h treatment
Description: (§1) The assay was designed as in the reference, Anticancer Drugs, 2002, 13, 1-8, the disclosure of which is incorporated by reference for the teaching of the assay.
(§2) Cells from cell lines A2780 (ovarian cell line) and PC3 (prostate cell line) (both from ATCC) were seeded at a density of 3000 cells/well in a white opaque 96-well plate. Following incubation at 37° C./5% CO2 for a period of 18-24 h, the cells were treated with various concentrations (stock solution was prepared in DMSO and subsequent dilutions were made in media as per ATCC guidelines) of the test compounds for a period of 48 h. At the end of treatment, the culture medium was discarded, the cells were washed with 1×PBS and 200 μl of 7 μg/ml propidium iodide was added to each well. The plates were frozen at −70° C. overnight. For analysis, the plates were warmed to RT, allowed to thaw and were read in PoleStar fluorimeter with the fluorescence setting. The percentage of viable cells in the non-treated set of wells was considered to be 100 and the percentage viability following treatment was calculated accordingly. IC50 values were calculated from graphs plotted using these percentages.

PC3 (prostate cell line) = assay: Cytotoxicity assay (propidium iodide assay), PC3; type: cell-based; details: Homo sapiens, PC-3, PC3 cells, 48 h treatment
Description: as §1, §2

Cn1c(=NC#N)n(-c2ccc(C(C)(C)C#N)nc2)c2c3cc(-c4cccc5ccccc45)ccc3ncc21 [Example 82, N-(1-(6-(2-cyanopropan-2-yl)pyridin-3-yl)-3-methyl-8-(naphthalen-1-yl)-1H-imidazo[4,5-c]quinolin-2(3H)-ylidene)cyanamide]
inhibition at 1 µM [1]: 30 to 70% | inhibition at 1 µM (PC3 (prostate cell line)): < 30%

CC(C)(C#N)c1ccc(-n2c(=NC#N)[nH]c3cnc4ccc(-c5cnc(N)c(C(F)(F)F)c5)cc4c32)cc1 [Example 83, N-(8-(6-amino-5-(trifluoromethyl)pyridin-3-yl)-1-(4-(2-cyanopropan-2-yl)phenyl)-1H-imidazo[4,5-c]quinolin-2(3H)-ylidene)cyanamide]
inhibition at 1 µM [1]: ≥ 70% | inhibition at 1 µM (PC3 (prostate cell line)): 30 to 70%

COc1ncc(-c2ccc3ncc4c(c3c2)n(-c2ccc(C(C)(C)C#N)cc2)c(=NC#N)n4C)cc1N [Example 84, N-(8-(5-amino-6-methoxypyridin-3-yl)-1-(4-(2-cyanopropan-2-yl)phenyl)-3-methyl-1H-imidazo[4,5-c]quinolin-2(3H)-ylidene)cyanamide]
inhibition at 1 µM [1]: ≥ 70% | inhibition at 1 µM (PC3 (prostate cell line)): ≥ 70%

CC(C)(C#N)c1ccc(-n2c(=NC#N)[nH]c3cnc4ccc(-c5cccnc5)cc4c32)cc1 [Example 85, N-(1-(4-(2-cyanopropan-2-yl)phenyl)-8-(pyridin-3-yl)-1H-imidazo[4,5-c]quinolin-2(3H)-ylidene)cyanamide]
inhibition at 1 µM [1]: < 30% | inhibition at 1 µM (PC3 (prostate cell line)): < 30%

CCn1c(=NC#N)n(-c2ccc(C(C)(C)C#N)cc2)c2c3cc(-c4cccnc4)ccc3ncc21 [Example 86, N-(1-(4-(2-cyanopropan-2-yl)phenyl)-3-ethyl-8-(pyridin-3-yl)-1H-imidazo[4,5-c]quinolin-2(3H)-ylidene)cyanamide]
inhibition at 1 µM [1]: ≥ 70% | inhibition at 1 µM (PC3 (prostate cell line)): 30 to 70%

Cn1c(=NC#N)n(-c2ccc(C(C)(C)C#N)cc2)c2c3cc(-c4cc(C(F)(F)F)ccc4F)ccc3ncc21 [Example 87, N-(1-(4-(2-cyanopropan-2-yl)phenyl)-8-(2-fluoro-5-(trifluoromethyl)phenyl)-3-methyl-1H-imidazo[4,5-c]quinolin-2(3H)-ylidene)cyanamide]
inhibition at 1 µM [1]: 30 to 70% | inhibition at 1 µM (PC3 (prostate cell line)): < 30%

COc1cc(-c2ccc3ncc4c(c3c2)n(-c2ccc(C(C)(C)C#N)cc2)c(=NC#N)n4C)cc(OC)c1OC [Example 88, N-(1-(4-(2-cyanopropan-2-yl)phenyl)-3-methyl-8-(3,4,5-trimethoxyphenyl)-1H-imidazo[4,5-c]quinolin-2(3H)-ylidene)cyanamide]
inhibition at 1 µM [1]: ≥ 70% | inhibition at 1 µM (PC3 (prostate cell line)): 30 to 70%

Cn1c(=NC#N)n(-c2ccc(C(C)(C)C#N)cc2)c2c3cc(C4=CCN(C(=O)OC(C)(C)C)CC4)ccc3ncc21 [Example 89, tert-butyl 4-(2-(cyanoimino)-1-(4-(2-cyanopropan-2-yl)phenyl)-3-methyl-2,3-dihydro-1H-imidazo[4,5-c]quinolin-8-yl)-5,6-dihydropyridine-1(2H)-carboxylate]
inhibition at 1 µM [1]: 30 to 70% | inhibition at 1 µM (PC3 (prostate cell line)): < 30%

Cn1c(=NC#N)n(-c2ccc(C(C)(C)C#N)cc2)c2c3cc(-c4ccc(N5CCOCC5)nc4)ccc3ncc21 [Example 90, N-(1-(4-(2-cyanopropan-2-yl)phenyl)-3-methyl-8-(6-morpholinopyridin-3-yl)-1H-imidazo[4,5-c]quinolin-2(3H)-ylidene)cyanamide]
inhibition at 1 µM [1]: ≥ 70% | inhibition at 1 µM (PC3 (prostate cell line)): 30 to 70%

COc1ccc(-c2ccc3ncc4c(c3c2)n(-c2ccc(C(C)(C)C#N)cc2)c(=NC#N)n4C)cn1 [Example 91, N-(1-(4-(2-cyanopropan-2-yl)phenyl)-8-(6-methoxypyridin-3-yl)-3-methyl-1H-imidazo[4,5-c]quinolin-2(3H)-ylidene)cyanamide]
IC50 [1]: ≤ 0.5 µM | IC50 (PC3 (prostate cell line)): ≤ 0.5 µM

Cn1c(=NC#N)n(-c2cncc(-c3ccccc3)c2)c2c3cc(-c4cnc(N)c(C(F)(F)F)c4)ccc3ncc21 [Example 92, N-(8-(6-amino-5-(trifluoromethyl)pyridin-3-yl)-3-methyl-1-(5-phenylpyridin-3-yl)-1H-imidazo[4,5-c]quinolin-2(3H)-ylidene)cyanamide]
IC50 [1]: ≤ 0.5 µM | IC50 (PC3 (prostate cell line)): ≤ 0.5 µM

COc1ncc(-c2ccc3ncc4c(c3c2)n(-c2cncc(-c3ccccc3)c2)c(=NC#N)n4C)cc1N [Example 93, N-(8-(5-amino-6-methoxypyridin-3-yl)-3-methyl-1-(5-phenylpyridin-3-yl)-1H-imidazo[4,5-c]quinolin-2(3H)-ylidene)cyanamide]
IC50 [1]: 0.5 to 2 µM | IC50 (PC3 (prostate cell line)): 0.5 to 2 µM

Cn1c(=NC#N)n(-c2ccc(C(C)(C)C#N)cc2)c2c3cc(-c4ccc5cc[nH]c5c4)ccc3ncc21 [Example 94, N-(1-(4-(2-cyanopropan-2-yl)phenyl)-8-(1H-indol-6-yl)-3-methyl-1H-imidazo[4,5-c]quinolin-2(3H)-ylidene)cyanamide]
IC50 [1]: ≤ 0.5 µM | IC50 (PC3 (prostate cell line)): ≤ 0.5 µM

COc1cc(OC)cc(-n2c(=NC#N)n(C)c3cnc4ccc(-c5cnc(N)c(C(F)(F)F)c5)cc4c32)c1 [Example 97, N-(8-(6-amino-5-(trifluoromethyl)pyridin-3-yl)-1-(3,5-dimethoxyphenyl)-3-methyl-1H-imidazo[4,5-c]quinolin-2(3H)-ylidene)cyanamide]
inhibition at 1 µM [1]: ≥ 70% | inhibition at 1 µM (PC3 (prostate cell line)): ≥ 70%

COc1ccc(-n2c(=NC#N)n(C)c3cnc4ccc(-c5cnc(N)c(C(F)(F)F)c5)cc4c32)c(OC)n1 [Example 98, N-(8-(6-amino-5-(trifluoromethyl)pyridin-3-yl)-1-(2,6-dimethoxypyridin-3-yl)-3-methyl-1H-imidazo[4,5-c]quinolin-2(3H)-ylidene)cyanamide]
inhibition at 1 µM [1]: ≥ 70% | inhibition at 1 µM (PC3 (prostate cell line)): ≥ 70%

COc1cc(OC)cc(-n2c(=NC#N)n(C)c3cnc4ccc(-c5cnc(OC)c(N)c5)cc4c32)c1 [Example 99, N-(8-(5-amino-6-methoxypyridin-3-yl)-1-(3,5-dimethoxyphenyl)-3-methyl-1H-imidazo[4,5-c]quinolin-2(3H)-ylidene)cyanamide]
IC50 [1]: ≤ 0.5 µM | IC50 (PC3 (prostate cell line)): 0.5 to 2 µM

COc1ccc(-n2c(=NC#N)n(C)c3cnc4ccc(-c5cnc6ccccc6c5)cc4c32)c(OC)c1 [Example 100, N-(1-(2,4-dimethoxyphenyl)-3-methyl-8-(quinolin-3-yl)-1H-imidazo[4,5-c]quinolin-2(3H)-ylidene)cyanamide]
IC50 [1]: ≤ 0.5 µM | IC50 (PC3 (prostate cell line)): ≤ 0.5 µM

COc1ccc(-n2c(=NC#N)n(C)c3cnc4ccc(-c5cccnc5)cc4c32)c(OC)c1 [Example 101, N-(1-(2,4-dimethoxyphenyl)-3-methyl-8-(pyridin-3-yl)-1H-imidazo[4,5-c]quinolin-2(3H)-ylidene)cyanamide]
IC50 [1]: ≤ 0.5 µM | IC50 (PC3 (prostate cell line)): ≤ 0.5 µM

COc1cc(OC)cc(-n2c(=NC#N)n(C)c3cnc4ccc(-c5cccnc5)cc4c32)c1 [Example 102, N-(1-(3,5-dimethoxyphenyl)-3-methyl-8-(pyridin-3-yl)-1H-imidazo[4,5-c]quinolin-2(3H)-ylidene)cyanamide]
inhibition at 1 µM [1]: ≥ 70% | inhibition at 1 µM (PC3 (prostate cell line)): < 30%

COc1ccc(-n2c(=NC#N)n(C)c3cnc4ccc(-c5ccc6ncccc6c5)cc4c32)c(OC)c1 [Example 103, N-(1-(2,4-dimethoxyphenyl)-3-methyl-8-(quinolin-6-yl)-1H-imidazo[4,5-c]quinolin-2(3H)-ylidene)cyanamide]
IC50 [1]: ≤ 0.5 µM | IC50 (PC3 (prostate cell line)): ≤ 0.5 µM

Cn1c(=NC#N)n(-c2ccc(OC(F)(F)F)cc2)c2c3cc(-c4cnc(N)c(C(F)(F)F)c4)ccc3ncc21 [Example 105, N-(8-(6-amino-5-(trifluoromethyl)pyridin-3-yl)-3-methyl-1-(4-(trifluoromethoxy)phenyl)-1H-imidazo[4,5-c]quinolin-2(3H)-ylidene)cyanamide]
IC50 [1]: ≤ 0.5 µM | IC50 (PC3 (prostate cell line)): ≤ 0.5 µM

COc1ncc(-c2ccc3ncc4c(c3c2)n(-c2ccc(OC(F)(F)F)cc2)c(=NC#N)n4C)cc1N [Example 106, N-(8-(5-amino-6-methoxypyridin-3-yl)-3-methyl-1-(4-(trifluoromethoxy)phenyl)-1H-imidazo[4,5-c]quinolin-2(3H)-ylidene)cyanamide]
IC50 [1]: ≤ 0.5 µM | IC50 (PC3 (prostate cell line)): ≤ 0.5 µM

Cn1c(=NC#N)n(-c2ccc(OC(F)(F)F)cc2)c2c3cc(-c4cccnc4)ccc3ncc21 [Example 108, N-(3-methyl-8-(pyridin-3-yl)-1-(4-(trifluoromethoxy)phenyl)-1H-imidazo[4,5-c]quinolin-2(3H)-ylidene)cyanamide]
IC50 [1]: ≤ 0.5 µM | IC50 (PC3 (prostate cell line)): 0.5 to 2 µM

Cn1c(=NC#N)n(-c2ccc(OC(F)(F)F)cc2)c2c3cc(-c4ccncc4)ccc3ncc21 [Example 109, N-(3-methyl-8-(pyridin-4-yl)-1-(4-(trifluoromethoxy)phenyl)-1H-imidazo[4,5-c]quinolin-2(3H)-ylidene)cyanamide]
IC50 [1]: ≤ 0.5 µM | IC50 (PC3 (prostate cell line)): 0.5 to 2 µM

Cc1cc(-c2ccc3ncc4c(c3c2)n(-c2ccc(C(C)(C)C#N)nc2)c(=NC#N)n4C)cnc1N1CCN(C(=O)OC(C)(C)C)CC1 [Example 119, tert-butyl 4-(5-(2-(cyanoimino)-1-(6-(2-cyanopropan-2-yl)pyridin-3-yl)-3-methyl-2,3-dihydro-1H-imidazo[4,5-c]quinolin-8-yl)-3-methylpyridin-2-yl)piperazine-1-carboxylate]
inhibition at 1 µM [1]: ≥ 70% | inhibition at 1 µM (PC3 (prostate cell line)): ≥ 70%
